# From BindingDB's records for doi:10.1021/acsmedchemlett.7b00169 (2017)
# Tested on: Enterococcus faecalis
# Experiment: Antimicrobial activity against vancomycin-resistant Enterococcus faecalis NCTC12201 after 8 hrs
smiles,measurement,value
Nc1c(O)cccc1C(=O)C[C@H](N)C(=O)O,IC50,30 µM
